Tested on: DSS-induced ulcerative colitis
Assay: DSS-induced ulcerative colitis model (body weight, colon length, histology, DAI)
Assay type: in vivo, ICR mice
Conditions: 3% DSS mice
Protocol: Experimental animals, ICR mice (6 weeks old male) were supplied from Daehan Biolink (Chungcheongbuk-do Province, Korea) and used. After 1 week of adaptation of experimental animals, 7 animals were accommodated in each group. During the experiment, the breeding conditions were 23±2° C. for a temperature, 55±10% for a relative humidity, and 150 to 300 Lux for lighting with a 12-hour cycle (artificial lighting, 8:00 am-8:00 pm). Feed was powdered feed for laboratory animals, and water was provided freely during the experiment period. Acute ulcerative colitis was induced in mice while allowing free intake of water containing 3% (w/v) of DDS for 14 days. During the experiment, each group of experimental animals was observed by checking whether the mice lost weight, urine and feces tests, and bleeding every day. Experimental animals were classified into the following four groups and the experiment was performed (Table 1). Puer tea extract and ASA were orally administered once a day for 14 days from the day of DDS treatment. After the experiment, mice were sacrificed, and the results were measured. Ulcerative colitis is measured by clinical signs such as weight loss, diarrhea with bleeding and mucus, and shortens the length of the colon. […] Weight loss is calculated as the difference between the initial and present weight. Visible rectal bleeding means diarrhea accompanied by bleeding or total rectal bleeding, and the DAI was calculated by the following equation. […] Puer tea extract (100 mg/kg) was orally administered once a day to 7 mice induced with 3% DSS for 14 days, and then the weights of the mice were measured, and the mean of the data in the triplicate experiment was expressed as ±S.D. Puer tea extract (100 mg/kg) was orally administered once a day for 14 days to 7 mice induced with 3% DSS for 14 days, and then the colon was removed, and the colon length was evaluated (A of FIG. 2). […] DAI was calculated as in Examples 1-5), and the mean of the experimental data was expressed as ±SD.

5-acetylsalicylic acid [5-ASA]
colon length (100 mg/kg orally once a day for 14 days, normal group 8.01±0.16, DSS group 5.25±0.12): 6.77±0.33 cm | thickness of the barrier muscle layer (H&E colon sections) (14 days, vs DSS group): became thinner again | DAI clinical symptoms (weight loss, diarrhea, rectal bleeding) (once a day for 14 days, vs DSS single treatment): significantly decreased
